# Assay results reported in patent US9096549B2, “Selective HDAC3 inhibitors” (Acetylon Pharmaceuticals, Inc., priority 2013, dated 2015).
# Key:
# Format in all cases: biochemical
# Settings in all cases: 24 hours pre-incubation with enzyme; tripeptide substrate 3 at Km
# HDAC2 = HDAC2 (Homo sapiens (Human), UniProt Q92769); assay: HDAC enzyme assay, HDAC2
# Protocol: (§1) Compounds for testing were diluted in DMSO to 50 fold the final concentration and a ten point three fold dilution series was made. The compounds were diluted in assay buffer (50 mM HEPES, pH 7.4, 100 mM KCl, 0.001% Tween-20, 0.05% BSA, […] tris(2-carboxyethyl)phosphine) to 6 fold their final concentration. The HDAC enzymes (purchased from BPS Biosciences) were diluted to 1.5 fold their final concentration in assay buffer and pre-incubated with the compounds for 24 hours prior to addition of the substrate.
# (§2) The substrate tripeptide substrate 3 (synthesized in house) for each enzyme was equal to the Km as determined by a substrate titration curve. The substrates were diluted in assay buffer at 6× their final concentration with 0.3 μM sequencing grade trypsin (Sigma). The substrate/trypsin mix was added to the enzyme/compound mix, the plate was shaken for 60 seconds and placed into a Spectramax M5 microtiter plate reader. The development of fluorescence was monitored for 30 min. and the linear rate of the reaction was calculated. The IC50 was determined using Graph Pad Prism by a four parameter curve fit. The IC50 values obtained for the compounds of this invention are found in Table 1.
# HDAC1 = HDAC1 (Homo sapiens (Human), UniProt Q13547); assay: HDAC enzyme assay, HDAC1
# Chain of HDAC1 (Q13547 whole entry): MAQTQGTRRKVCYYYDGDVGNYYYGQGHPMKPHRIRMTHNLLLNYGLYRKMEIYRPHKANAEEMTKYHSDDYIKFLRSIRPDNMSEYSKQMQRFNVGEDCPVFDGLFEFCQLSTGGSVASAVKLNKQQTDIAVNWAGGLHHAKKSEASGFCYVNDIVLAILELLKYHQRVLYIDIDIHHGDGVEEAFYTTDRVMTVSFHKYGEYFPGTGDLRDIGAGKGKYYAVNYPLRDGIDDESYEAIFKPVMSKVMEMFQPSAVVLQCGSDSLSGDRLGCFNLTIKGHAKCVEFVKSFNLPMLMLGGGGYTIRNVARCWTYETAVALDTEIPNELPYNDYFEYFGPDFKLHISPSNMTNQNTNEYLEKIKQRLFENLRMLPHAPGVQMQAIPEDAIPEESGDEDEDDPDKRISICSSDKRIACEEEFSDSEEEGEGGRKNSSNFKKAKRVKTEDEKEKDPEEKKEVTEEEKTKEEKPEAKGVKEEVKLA
# Protocol: as §1, §2
# HDAC3 = HDAC3 (Homo sapiens (Human), UniProt O15379); assay: HDAC enzyme assay, HDAC3
# Chain of HDAC3 (O15379 whole entry): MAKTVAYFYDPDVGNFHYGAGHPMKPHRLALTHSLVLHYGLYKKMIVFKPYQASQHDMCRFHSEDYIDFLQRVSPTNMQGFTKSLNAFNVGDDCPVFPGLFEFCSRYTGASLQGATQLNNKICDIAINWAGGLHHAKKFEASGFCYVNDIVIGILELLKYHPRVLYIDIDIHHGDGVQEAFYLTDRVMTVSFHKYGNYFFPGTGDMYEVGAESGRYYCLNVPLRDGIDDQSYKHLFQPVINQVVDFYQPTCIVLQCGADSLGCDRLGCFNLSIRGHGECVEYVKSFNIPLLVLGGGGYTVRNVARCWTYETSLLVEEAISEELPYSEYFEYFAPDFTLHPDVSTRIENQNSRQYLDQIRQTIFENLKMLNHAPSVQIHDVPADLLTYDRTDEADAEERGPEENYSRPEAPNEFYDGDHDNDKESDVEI
# Chain of HDAC3 (Q9Y618 395-489 partner): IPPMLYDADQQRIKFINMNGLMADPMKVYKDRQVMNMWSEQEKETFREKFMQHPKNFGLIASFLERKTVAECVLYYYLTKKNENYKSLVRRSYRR
# Protocol: as §1, §2
# Chain of HDAC2 (Q92769 whole entry): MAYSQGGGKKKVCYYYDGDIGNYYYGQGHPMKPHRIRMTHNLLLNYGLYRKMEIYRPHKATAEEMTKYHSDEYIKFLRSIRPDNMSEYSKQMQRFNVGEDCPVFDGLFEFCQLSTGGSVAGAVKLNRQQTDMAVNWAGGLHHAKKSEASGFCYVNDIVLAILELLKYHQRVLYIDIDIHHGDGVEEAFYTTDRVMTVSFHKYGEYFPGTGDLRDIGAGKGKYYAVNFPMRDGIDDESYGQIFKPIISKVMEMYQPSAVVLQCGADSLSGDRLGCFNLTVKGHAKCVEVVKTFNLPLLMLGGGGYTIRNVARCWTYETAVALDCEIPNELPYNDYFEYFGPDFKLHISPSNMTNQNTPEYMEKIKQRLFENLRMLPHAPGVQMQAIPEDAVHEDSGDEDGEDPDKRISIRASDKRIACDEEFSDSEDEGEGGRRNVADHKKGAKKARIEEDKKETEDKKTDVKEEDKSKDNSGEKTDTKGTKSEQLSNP
Compound,IC50 (HDAC2) [nM],IC50 (nM) HDAC1 (HDAC1),IC50 (HDAC3) [nM],IC50 (HDAC1) [nM],IC50 (nM) HDAC2 (HDAC2)
Nc1cc(F)ccc1NC(=O)c1cnc2cc(N3CCNCC3)ccc2c1 [Compound J],> 2000,No inhibition,470,–,–
Nc1ccc(F)cc1NC(=O)c1cnc2cc(N3CCNCC3)ccc2n1 [Compound O],> 2000,–,675,> 2000,–
Nc1cc(F)ccc1NC(=O)c1ccc2[nH]cnc2c1 [Compound D],> 2000,No inhibition,282,–,–
Nc1ccc(F)cc1NC(=O)c1ccc2nc(N3CCNCC3)ccc2c1 [Compound R],1340,–,315,> 2000,–
"Nc1ccc(F)cc1NC(=O)c1cnc2cc(N3CCNCC3)ccc2c1 [Compound Q, N-(2-amino-5-fluorophenyl)-7-(piperazin-1-yl)quinoline-3-carboxamide]",> 2000,–,308,> 2000,–
Nc1cc(F)ccc1NC(=O)c1cnc2cc(N3CCNCC3)ccc2n1 [Compound N],–,No inhibition,1300,–,No inhibition
Nc1cc(F)ccc1NC(=O)c1ccc2c(c1)CC(=O)N2 [Compound C],> 2000,No inhibition,269,–,–
Nc1cc(F)ccc1NC(=O)c1ccc2c(cnn2CCN2CCOCC2)c1 [Compound H],1780,–,320,> 2000,–

# These reach a lower IC50 (HDAC3). Values come first.
IC50 (HDAC2) [nM],IC50 (nM) HDAC1 (HDAC1),IC50 (HDAC3) [nM],IC50 (HDAC1) [nM],IC50 (nM) HDAC2 (HDAC2),Compound
228,–,30,462,–,Nc1cc(F)ccc1NC(=O)c1cc2ccc(N3CCNCC3)c(C3CC3)c2cn1 [Compound M]
372,–,53,355,–,Nc1ccccc1NC(=O)c1cnc2c(C3CC3)c(N3CCNCC3)ccc2c1 [Compound B]
805,–,68,1610,–,CN1CCN(c2ccc3cc(C(=O)Nc4ccc(F)cc4N)cnc3c2C2CC2)CC1 [Compound E]
1530,–,193,> 2000,–,Nc1cc(F)ccc1NC(=O)c1cnc2c(ccn2CCN2CCOCC2)c1 [Compound G]
455,–,59,468,–,Nc1ccc(F)cc1NC(=O)c1cnc2c(C3CC3)c(N3CCNCC3)ccc2c1 [Compound A]
271,–,38,299,–,"Nc1ccccc1NC(=O)c1cc2ccc(N3CCNCC3)cc2cn1 [Compound K, N-(2-aminophenyl)-7-(piperazin-1-yl)isoquinoline-3-carboxamide]"
589,–,57,> 2000,–,Nc1cc(F)ccc1NC(=O)c1cnc2c(C3CC3)c(N3CCNCC3)ccc2c1 [Compound I]
212,–,33,228,–,Nc1ccccc1NC(=O)c1cc2ccc(N3CCNCC3)c(C3CC3)c2cn1 [Compound L]
1100,–,235,> 2000,–,Nc1ccc(F)cc1NC(=O)c1ccc2nc(N3CCNCC3)cnc2c1 [Compound P]
